{
  "source": "patent US12662458B2",
  "about": "“Solid forms of a compound” (Denali Therapeutics Inc., priority 2020, dated 2026)",
  "key": {"[1]": {"experiment": "Dynamic vapor sorption (hygroscopicity)", "format": "physicochemical", "conditions": "DVS", "procedure": "DVS analysis was carried out using a Surface Measurement System DVS Intrinsic analyzer. The instrument was calibrated with standard weights. Approximately 15-20 mg of sample was loaded into a pan for analysis. The sample was analyzed at 25° C. in 10% relative humidity (RH) steps from 0 to 95% RH (adsorption cycle) and from 95 to 0% RH (desorption cycle). The movement from one step to the next occurred either after satisfying the equilibrium criterion of 0.002% weight change (dm/dt) or, if the equilibrium criterion was not met, after ten hours."}, "[2]": {"experiment": "Biorelevant media solubility of Forms A and C", "format": "physicochemical", "conditions": "for Solubility / Final XRPD: 37° C.", "procedure": "Biorelevant media solubility of Forms A and C were studied in water, SGF, FaSSIF, and FeSSIF at 37° C. 10-20 mg of Form A or C was weighed into 2-3 mL glass vials and media was added to achieve a solids loading of ˜5 mg/mL. Each slurry was magnetically agitated at 750-1000 rpm at 37° C., filtered via centrifugation, and the supernatant was analyzed by HPLC to determine solubility. In all cases, there was no polymorphic form change observed by XRPD analysis of the filtered solids."}, "[3]": {"experiment": "Solid form stability on storage", "format": "physicochemical", "procedure": "To evaluate the solid form stability, Forms A and C were stored under 25° C./60% RH (open), 40° C./75% RH (open), and 60° C. for up to 4 weeks. Samples were analyzed by XRPD, TGA, DSC, and HPLC purity."}, "[4]": {"experiment": "Plasma PK in monkeys, powder in capsule", "format": "in vivo", "conditions": "micronized (d90 5), single oral 15 mg/kg, cynomolgus monkeys", "procedure": "Non-naïve male cynomolgus monkeys were used in this study with at least a 7-day washout period prior to dosing Animals were administered micronized Form A, unmicronized Form A, or micronized Form C powder in capsule by single oral administration at 15 mg/kg. The capsules were prepared according to the animals' body weights on dosing day. Blood samples were collected at 0.25, 0.5, 1, 2, 4, 8, 24, 48, and 72 hours post-dose."}, "[5]": {"experiment": "Plasma PK in monkeys, nanosuspension", "format": "in vivo", "conditions": "nanosuspension in deionized water, single oral 25 mg/kg, cynomolgus monkeys", "procedure": "Non-naïve male cynomolgus monkeys were used in this study with at least a 7-day washout period prior to dosing Animals were administered a nanosuspension of Form C as a single oral administration at 25 mg/kg. The nanosuspension was prepared by suspending nano-milled Form C in deionized water (5 mg/mL) to obtain an opaque homogenous suspension. Blood samples were collected at 0.25, 0.5, 1, 2, 4, 8, 24, 48, and 72 hours post-dose. Concentrations of Compound I in plasma samples were determined by LC/MS/MS.\nA separate study was performed for a nanosuspension of Form A."}, "[6]": {"experiment": "Plasma PK in rats, nanosuspension", "format": "in vivo", "conditions": "nanosuspension in deionized water, single oral 25 mg/kg, Wistar Han rats", "procedure": "Wistar Han rats were administered a nanosuspension of Form A or Form C as a single oral administration at 25 mg/kg. The nanosuspensions were prepared by suspending nano-milled Form A or Form C in deionized water (2.5 mg/mL) to obtain opaque homogenous suspensions. Blood samples were collected at 0.25, 0.5, 1, 2, 4, 8, 24, 48, and 72 hours post-dose. Concentrations of Compound I in plasma samples were determined by LC/MS/MS."}},
  "data": [
    {"smiles": "O=C(COc1ccc(Cl)cc1)NC12CC(c3nnc([C@H]4C[C@@H](OC(F)(F)F)C4)o3)(C1)C2", "note": "(single isomer, unassigned) [Form C, 2-(4-chlorophenoxy)-N-[3-[5-[cis-3-(trifluoromethoxy)cyclobutyl]-1,3,4-oxadiazol-2-yl]-1-bicyclo[1.1.1]pentanyl]acetamide]", "values": [
      {"measurement": "Hygroscopicity", "setting": "[1]", "result": "Non-hygroscopic"},
      {"measurement": "weight change / form change after exposure to humidity", "setting": "[1]", "result": "no weight change and no polymorphic change"},
      {"measurement": "Solubility", "setting": "[2]; FaSSIF", "result": 9.65, "unit": "µg/mL"},
      {"measurement": "Solubility", "setting": "[2]; FeSSIF", "result": 16.14, "unit": "µg/mL"},
      {"measurement": "Solubility", "setting": "[2]; SGF", "result": 0.56, "unit": "µg/mL"},
      {"measurement": "Solubility", "setting": "[2]; Water", "result": 1.02, "unit": "µg/mL"},
      {"measurement": "Final XRPD", "setting": "[2]; filtered solids after slurry in FaSSIF", "result": "Form C"},
      {"measurement": "Final XRPD", "setting": "[2]; filtered solids after slurry in FeSSIF", "result": "Form C"},
      {"measurement": "Final XRPD", "setting": "[2]; filtered solids after slurry in SGF", "result": "Form C"},
      {"measurement": "Final XRPD", "setting": "[2]; filtered solids after slurry in Water", "result": "Form C"},
      {"measurement": "aqueous solubility", "setting": "[2]; listed as Compound I Form C", "result": "about 1.02 micrograms/mL"},
      {"measurement": "DSC endotherm", "setting": "[3]; 25° C./60% RH (open), 2 week", "result": 133.7, "unit": "°C"},
      {"measurement": "HPLC purity", "setting": "[3]; 25° C./60% RH (open), 2 week", "result": 99.7, "unit": "%"},
      {"measurement": "TGA loss (%, to 150° C.)", "setting": "[3]; 25° C./60% RH (open), 2 week", "result": 0.4, "unit": "%"},
      {"measurement": "XRPD", "setting": "[3]; 25° C./60% RH (open), 2 week", "result": "Form C"},
      {"measurement": "DSC endotherm", "setting": "[3]; 25° C./60% RH (open), 4 week", "result": 133.3, "unit": "°C"},
      {"measurement": "HPLC purity", "setting": "[3]; 25° C./60% RH (open), 4 week", "result": 99.7, "unit": "%"},
      {"measurement": "TGA loss (%, to 150° C.)", "setting": "[3]; 25° C./60% RH (open), 4 week", "result": 0.3, "unit": "%"},
      {"measurement": "XRPD", "setting": "[3]; 25° C./60% RH (open), 4 week", "result": "Form C"},
      {"measurement": "solid form stability (form change, weight gain, purity changes)", "setting": "[3]; 25° C./60% RH (open), 40° C./75% RH (open), 60° C., up to 4 weeks", "result": "No form change, weight gain, or purity changes"},
      {"measurement": "DSC endotherm", "setting": "[3]; 40° C./75% RH (open), 2 week", "result": 133.6, "unit": "°C"},
      {"measurement": "HPLC purity", "setting": "[3]; 40° C./75% RH (open), 2 week", "result": 99.7, "unit": "%"},
      {"measurement": "TGA loss (%, to 150° C.)", "setting": "[3]; 40° C./75% RH (open), 2 week", "result": 0.2, "unit": "%"},
      {"measurement": "XRPD", "setting": "[3]; 40° C./75% RH (open), 2 week", "result": "Form C"},
      {"measurement": "DSC endotherm", "setting": "[3]; 40° C./75% RH (open), 4 week", "result": 133.3, "unit": "°C"},
      {"measurement": "HPLC purity", "setting": "[3]; 40° C./75% RH (open), 4 week", "result": 99.8, "unit": "%"},
      {"measurement": "TGA loss (%, to 150° C.)", "setting": "[3]; 40° C./75% RH (open), 4 week", "result": 0.2, "unit": "%"},
      {"measurement": "XRPD", "setting": "[3]; 40° C./75% RH (open), 4 week", "result": "Form C"},
      {"measurement": "DSC endotherm", "setting": "[3]; 60° C. (closed), 2 week", "result": 133.6, "unit": "°C"},
      {"measurement": "HPLC purity", "setting": "[3]; 60° C. (closed), 2 week", "result": 99.8, "unit": "%"},
      {"measurement": "TGA loss (%, to 150° C.)", "setting": "[3]; 60° C. (closed), 2 week", "result": 0.3, "unit": "%"},
      {"measurement": "XRPD", "setting": "[3]; 60° C. (closed), 2 week", "result": "Form C"},
      {"measurement": "DSC endotherm", "setting": "[3]; 60° C. (closed), 4 week", "result": 133.0, "unit": "°C"},
      {"measurement": "HPLC purity", "setting": "[3]; 60° C. (closed), 4 week", "result": 99.8, "unit": "%"},
      {"measurement": "TGA loss (%, to 150° C.)", "setting": "[3]; 60° C. (closed), 4 week", "result": 0.2, "unit": "%"},
      {"measurement": "XRPD", "setting": "[3]; 60° C. (closed), 4 week", "result": "Form C"},
      {"measurement": "DSC endotherm", "setting": "[3]; Initial", "result": 133.1, "unit": "°C"},
      {"measurement": "HPLC purity", "setting": "[3]; Initial", "result": 99.8, "unit": "%"},
      {"measurement": "TGA loss (%, to 150° C.)", "setting": "[3]; Initial", "result": 0.1, "unit": "%"},
      {"measurement": "XRPD", "setting": "[3]; Initial", "result": "Form C"},
      {"measurement": "AUC0-24 h", "setting": "[4]", "result": "117 ± 39", "unit": "μM-hr"},
      {"measurement": "Cmax", "setting": "[4]", "result": "7.6 ± 3.4", "unit": "µM"},
      {"measurement": "Tmax", "setting": "[4]", "result": 4, "unit": "h"},
      {"measurement": "AUC0-24 h", "setting": "[5]", "result": "367 ± 99", "unit": "μM-hr"},
      {"measurement": "Cmax", "setting": "[5]", "result": "21.7 ± 4.2", "unit": "µM"},
      {"measurement": "Tmax", "setting": "[5]", "result": 8, "unit": "h"},
      {"measurement": "Tmax", "setting": "[6]", "result": 8, "unit": "h"},
      {"measurement": "AUC0-48 h", "setting": "[6]; 25 mg/kg", "result": "1658 ± 211", "unit": "μM-hr"},
      {"measurement": "Cmax", "setting": "[6]; 25 mg/kg", "result": "101 ± 10", "unit": "µM"}
    ]}
  ]
}
